Measured values: patent publication US20050043262A1, “Novel specific inhibitor of the cyclin kinase inhibitor p21Waf1/Cip1 and methods of using the inhibitor” (priority 2000, published 2005)

Legend:
T47D cells = assay: Nuclear morphology (Hoechst 33258) in T47D cells; type: cell-based, human; settings: serum stimulated 24 hours after lipofection
Procedure: Evaluation of Nuclear Morphology: Cells were seeded in 6-well culture dishes and treated with ODNs as described. The cells were then immersed in methanol for at least 10 min. Cells were stained in 1 μg/ml Hoechst 33258 in water with 1% nonfat dry milk. After staining for 8-10 min, the cells were rinsed in water and dried completely. Nuclear morphology was visually evaluated by fluorescence microscopy.
Apoptosis is the end result of an elaborate cascade of molecular events that ultimately result in programmed cell death; thus, a variety of tests are generally used to determine whether apoptosis is occurring. The methods to study apoptosis were employed: (a) assessment of nuclear morphology; (b) PARP cleavage; and (c) caspase-3 cleavage. Serum-starved cells were transfected with antisense p21 ODN or the control ODN, fixed, stained with Hoechst 33258, and examined under UV light. MCF7 and T47D cells were grown to confluence, serum starved for 24 hours, and lipofected with antisense p21 or control ODN. The cells were subsequently serum stimulated for another 24 hours, fixed, stained with Hoechst 33258, and examined under UV light at X400.

cyclin D1/cdk 4 = assay: Cyclin D1 immunoprecipitation / cdk 4 immunoblot in A10 VSM cells; type: cell-based, rat; settings: PDGF-BB 30 ng/ml, all times
Procedure: Cells were transfected with p21^Waf1/Cip1 antisense (SEQ. ID NO.:1) or sense oligodeoxynucleotide (SEQ. ID NO.:2), allowed to grow overnight in serum-free media. After overnight incubation in serum-free medium, the cells were stimulated with PDGF-BB (30 ng/ml) for the times indicated. The cells were subsequently immunoprecipitated with either cyclin D1 or cyclin E and immunoblotted with cdk 4 or cdk 2, respectively.

p27^Kip1 = assay: p27Kip1 protein level by Western blot in A10 VSM cells; type: cell-based, rat; settings: PMA for 4 hours
Procedure: (§1) Western blots: Cells were grown to confluence in 6 cm culture dishes and serum deprived. After transfection and or treatment with appropriate agonist, the cells were washed with phosphate-buffered saline and lysed in lysis buffer and the supernatant was Western blotted as described (Weiss et al., 1998 Am. J. Physiol., 274, p. C1521-C1529).
To check for specificity of protein inhibition by the antisense p21^Waf1/Cip1 oligodeoxynucleotide (SEQ. ID NO.: 1), protein levels of p21^Waf1/Cip1 and p27^Kip1 after transfection with antisense p21^Waf1/Cip1 oligodeoxynucleotide (SEQ. ID NO.:1) were examined. In these experiments the ability of antisense oligodeoxynucleotides (SEQ. ID NO.:1) to inhibit maximally stimulated CKI expression (see FIG. 4) was assessed. The cells were stimulated with PMA for 4 hours at various times after overnight serum starvation.
At the times indicated after the overnight incubation (in hours), the medium was changed to quiescence medium and the cells were stimulated with PMA for 4 hours to show maximal p21^Waf1/Cip1 expression (FIG. 6a). The lysates were immunoblotted with (a) p21^Waf1/Cip1 or p27^Kip1 antibody or (b) α-actin antibody. […]

α-actin = assay: alpha-actin level by Western blot in A431 cells; type: cell-based, human; settings: 200 nM oligodeoxynucleotide
Procedure: as §1, with “and Nuccitelli, 1992” for “et al., 1998 Am.”, “Biol. Chem., 267,” for “Physiol., 274,”, “5608-5613).” for “C1521-C1529).”
PMA is a potent inducer of p21^Waf1/Cip1 in a variety of different cell lines (Huang et al., 1995 Proc. Natl. Acad. Sci. US.A., 92, p. 4793-4797; Michieli et al., 1994 Cancer Res., 54, p. 3391-3395) and was employed to examine p21^Waf1/Cip1 levels after antisense transfection and confirm efficacy of translation to attenuate p21^Waf1/Cip1 levels. A431 cells were transfected with 200 nM antisense p21^Waf1/Cip1 (SEQ. ID NO.:1) or sense p21^Waf1/Cip1 oligodeoxynucleotide (SEQ. ID NO.:2). After overnight incubation in serum-free medium, the cells were stimulated with PMA (100 ng/ml) for the times indicated, lysed, and the lysates were Western blotted with p21^Waf1/Cip1 or α-actin antibody.

fibronectin = assay: Fibronectin production and secretion (immunoprecipitation/immunoblot); type: cell-based, rat; settings: VSM cells, 400 nM, TGF-β 0.1 to 10 ng/ml
Procedure: Immunoprecipitations: VSM cells were grown to confluence. After incubation under appropriate conditions, the cells were washed with ice-cold phosphate-buffered saline and immediately lysed in lysis buffer (20 mM Tris [pH7.5], 150 mM NaCl, 1 mM EDTA, 1 mM EGTA, 1% Triton X-100, 2.5 mM sodium pyrophosphate, 1 mM β-glycerolphosphate, 1 mM Na3VO4, 1 μg/ml Leupeptin, 1 mM PMSF) at 4° C. The cells were scraped off with a rubber spatula and the insoluble material removed by centrifuging at 10,000× g for 10 min at 4° C. Protein concentration was determined by A595, and lysates containing equal amounts of protein were incubated with […] anti-fibronectin antibody at 4° C. overnight. Protein A-Sepharose beads were added and the resulting mixture was incubated for an additional 2 hours at 4° C. The beads were centrifuged in a microfuge for 20 sec, and the pellet was washed 3 times with cold lysis buffer. The supernatant was decanted, gel loading buffer was added to the precipitate, and the solution was boiled for 5 min, and centrifuged. The supernatant was electrophoresed on a 7.5% SDS-polyacrylamide gel with equal volumes of sample per lane. The proteins were electrophoretically transferred to nitrocellulose and probed with fibronectin antibody.
The p21 influences on matrix protein secretion in VSM cells were determined. […]

| Substance | nuclear morphology (T47D cells) | association of cyclin D1 and cdk 4 (cyclin D1/cdk 4) | p27^Kip1 protein (p27^Kip1) | levels of α-actin (α-actin) | TGF-β-mediated fibronectin production and secretion (fibronectin) |
| --- | --- | --- | --- | --- | --- |
| 5′-ATC-CCC-AGC-CGG-TTC-TGA-CAT-3′ (antisense ATCCCCAGCCGGTTCTGACAT; listed as DNA, chemistry not fully specified) [antisense p21 ODN] | nuclear morphological changes consistent with apoptosis | – | – | – | – |
| 5′-GACATCACCAGGATCGGACAT-3′ | – | marked decrease | slight decrease | not altered | decreases |
